Source: PubChem BioAssay AID1919005 (Molecular Pharmacology Branch, DTP, NCI, 2023)

Tested on: 855422-203-R-J1-PDC complex spheroid growth
Test: Anticancer human tumor 855422-203-R-J1-PDC patient-derived bladder carcinoma cell line growth inhibition [AhR]
Details: for IC50: curve of first compound; for viability, T/C: stronger effect = lower value
How it was run: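 Complex tumor spheroids co-cultured with HUVEC and human MSC stroma; AhR antagonists tested in combination with standard-of-care and investigational agents. Top concentration at or near clinical Cmax (else 10 microM), half-log dilutions; growth expressed as percent test/control.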
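Further: spheroids exposed to agents for seven days before readout.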
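Wherever viability, T/C is given: percent of DMSO vehicle control luminescence viability.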

## Nc1ncn(C2CC(O)C(CO)S2)c(=O)n1 (stereo not given) + Cc1ccccc1N=Nc1ccc(NC(=O)c2ccnn2C)c(C)c1
Second compound 0.1 µM
  IC50: > 300 nM
Second compound 0.316 µM
  IC50: > 300 nM
Second compound 1 µM
  IC50: > 300 nM
Second compound 3.16 µM
  IC50: > 300 nM
Second compound 10 µM
  IC50: > 300 nM
Second compound 0.1 µM, first compound 0.000949 µM
  viability, T/C: 99.8%
Second compound 0.1 µM, first compound 0.003 µM
  viability, T/C: 94.9%
Second compound 0.1 µM, first compound 0.00949 µM
  viability, T/C: 98%
Second compound 0.1 µM, first compound 0.03 µM
  viability, T/C: 95.9%
Second compound 0.1 µM, first compound 0.0949 µM
  viability, T/C: 97%
Second compound 0.1 µM, first compound 0.3 µM
  viability, T/C: 93.8%
Second compound 0.316 µM, first compound 0.000949 µM
  viability, T/C: 104%
Second compound 0.316 µM, first compound 0.003 µM
  viability, T/C: 97.7%
Second compound 0.316 µM, first compound 0.00949 µM
  viability, T/C: 97.7%
Second compound 0.316 µM, first compound 0.03 µM
  viability, T/C: 99.8%
Second compound 0.316 µM, first compound 0.0949 µM
  viability, T/C: 95.4%
Second compound 0.316 µM, first compound 0.3 µM
  viability, T/C: 101%
Second compound 1 µM, first compound 0.000949 µM
  viability, T/C: 100%
Second compound 1 µM, first compound 0.003 µM
  viability, T/C: 100%
Second compound 1 µM, first compound 0.00949 µM
  viability, T/C: 92.5%
Second compound 1 µM, first compound 0.03 µM
  viability, T/C: 98.2%
Second compound 1 µM, first compound 0.0949 µM
  viability, T/C: 98%
Second compound 1 µM, first compound 0.3 µM
  viability, T/C: 92.6%
Second compound 3.16 µM, first compound 0.000949 µM
  viability, T/C: 98.9%
Second compound 3.16 µM, first compound 0.003 µM
  viability, T/C: 87.2%
Second compound 3.16 µM, first compound 0.00949 µM
  viability, T/C: 90.2%
Second compound 3.16 µM, first compound 0.03 µM
  viability, T/C: 86.3%
Second compound 3.16 µM, first compound 0.0949 µM
  viability, T/C: 93.7%
Second compound 3.16 µM, first compound 0.3 µM
  viability, T/C: 84.5%
Second compound 10 µM, first compound 0.000949 µM
  viability, T/C: 87.6%
Second compound 10 µM, first compound 0.003 µM
  viability, T/C: 80.8%
Second compound 10 µM, first compound 0.00949 µM
  viability, T/C: 82%
Second compound 10 µM, first compound 0.03 µM
  viability, T/C: 90.3%
Second compound 10 µM, first compound 0.0949 µM
  viability, T/C: 91.4%
Second compound 10 µM, first compound 0.3 µM
  viability, T/C: 78%
